In patent publication US6353025B1, “Phenylaminoalkylcarboxylic acid derivatives and pharmaceutical compositions comprising the same” (Kissei Pharmaceutical Co., Ltd., priority 1997, dated 2002):
Counter-ions that a name gives are not always drawn. Like-named read-outs stand apart in the source and are kept apart here.

How the values were obtained:
β1-adrenoceptor = molecular target: T1, β1-adrenoceptor (Rattus norvegicus, UniProt P18090); assay: β1-adrenoceptor stimulating effects: increase of heart rate in isolated rat atria (Magnus method); set-up: species or system SD rats
T1 construct: Atria of male SD rats (250 to 400 g in body weight) were isolated; from tissue; host or cells: isolated rat atria
T1 sequence (P18090 whole entry): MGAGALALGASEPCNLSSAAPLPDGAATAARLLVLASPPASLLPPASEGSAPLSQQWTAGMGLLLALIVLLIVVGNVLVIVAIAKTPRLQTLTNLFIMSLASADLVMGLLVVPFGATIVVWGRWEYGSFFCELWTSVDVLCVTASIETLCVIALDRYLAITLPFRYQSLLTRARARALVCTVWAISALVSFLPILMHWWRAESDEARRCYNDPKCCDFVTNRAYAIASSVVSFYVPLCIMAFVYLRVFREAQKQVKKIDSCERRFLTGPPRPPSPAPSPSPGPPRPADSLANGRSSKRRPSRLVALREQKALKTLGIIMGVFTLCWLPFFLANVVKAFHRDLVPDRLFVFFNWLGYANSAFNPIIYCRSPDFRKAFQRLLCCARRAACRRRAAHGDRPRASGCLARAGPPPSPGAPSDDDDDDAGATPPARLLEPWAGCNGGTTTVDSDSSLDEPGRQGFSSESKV
Method: The experiment for measuring β1-adrenoceptor stimulating effects
Atria of male SD rats (250 to 400 g in body weight) were isolated and the experiment was conducted according to the Magnus method. The preparations with a tension of 0.5 g were exposed to Krebs-Henseleit solution maintained at 37° C. and gassed with a mixture of 95% oxygen and 5% carbon dioxide. The cardiac contractility was measured isometrically with a force-displacement transducer, and heart rate was recorded on a rectigram via a tachometer, and the drug was added cumulatively.

β2-adrenoceptor = molecular target: T2, β2-adrenoceptor (Rattus norvegicus, UniProt P10608); assay: β2-adrenoceptor stimulating effects: inhibition of spontaneous contraction of isolated pregnant rat uterus (Magnus method); details: isolated uterine muscle strips of pregnant SD rats (pregnancy day 21)
T2 construct: Uteri of pregnant SD rats (pregnancy day 21) were isolated and longitudinal uterine muscle strips; from tissue; host or cells: longitudinal uterine muscle strips of pregnant SD rats
T2 sequence (P10608 whole entry): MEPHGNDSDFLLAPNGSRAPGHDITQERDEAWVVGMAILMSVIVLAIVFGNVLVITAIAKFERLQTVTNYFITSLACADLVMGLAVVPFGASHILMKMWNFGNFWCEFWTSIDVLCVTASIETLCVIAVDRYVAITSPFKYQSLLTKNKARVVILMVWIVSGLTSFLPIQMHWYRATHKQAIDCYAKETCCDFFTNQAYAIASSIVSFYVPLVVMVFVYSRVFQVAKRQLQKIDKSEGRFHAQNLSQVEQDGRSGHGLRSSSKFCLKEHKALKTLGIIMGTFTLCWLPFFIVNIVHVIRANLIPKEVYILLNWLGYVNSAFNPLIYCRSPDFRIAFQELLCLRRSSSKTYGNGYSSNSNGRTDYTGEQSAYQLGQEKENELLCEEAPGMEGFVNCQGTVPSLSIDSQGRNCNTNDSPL
Method: The experiment for measuring β2-adrenoceptor stimulating effects
Uteri of pregnant SD rats (pregnancy day 21) were isolated and longitudinal uterine muscle strips of approximately 15 mm in length and approximately 5 mm in width free from the basal plate were prepared. The experiment was conducted according to the Magnus method. The preparations with a tension of 0.5 g were exposed to Locke-Ringer solution maintained at 37° C. and gassed with a mixture of 95% oxygen and 5% carbon dioxide. Spontaneous contractions of myometrium were measured isometrically with a force-displacement transducer and recorded on a rectigram. The drug was added cumulatively to the Magnus bath every 5 minutes.

male ICR rats = assay: Acute toxicity test; format: in vivo; details: male ICR rats of 4 weeks age, intravenously, 250 mg/kg, during 24 hours after the administration
Method: To male ICR rats of 4 weeks age was administered intravenously N-[2,6-dichloro-4-[2-[[(1S, 2R)-2-hydroxy-2-(4-hydroxyphenyl)-1-methylethyl]amino]ethyl]phenyl]aminoacetic acid at a dose of 250 mg/kg.

β3-adrenoceptor = β3-adrenoceptor (Mustela putorius furo, UniProt M3YEU4); assay: β3-adrenoceptor stimulating effects: relaxation of isolated ferret urinary bladder smooth muscle strips (Magnus method); details: read-out: EC50 (molar concentration producing 50% relaxation of urinary bladder smooth muscle); isolated male ferret urinary bladder strips; 0% = maximal relaxation after 10^−5 M forskolin
Sequence of β3-adrenoceptor (M3YEU4 entry or part of it): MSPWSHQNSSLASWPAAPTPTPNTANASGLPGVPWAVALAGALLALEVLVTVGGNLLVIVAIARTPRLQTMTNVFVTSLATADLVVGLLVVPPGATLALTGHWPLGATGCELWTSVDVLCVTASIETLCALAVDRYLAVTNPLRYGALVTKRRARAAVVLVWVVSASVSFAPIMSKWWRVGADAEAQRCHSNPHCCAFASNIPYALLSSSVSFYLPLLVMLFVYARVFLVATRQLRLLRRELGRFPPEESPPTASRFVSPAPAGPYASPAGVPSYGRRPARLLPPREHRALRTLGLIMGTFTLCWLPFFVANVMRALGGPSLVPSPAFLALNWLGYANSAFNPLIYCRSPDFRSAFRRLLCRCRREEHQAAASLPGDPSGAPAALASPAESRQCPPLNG
Method: The experiment for measuring β3-adrenoceptor stimulating effects
Urinary bladders of male ferrets (1100 to 1400 g in body weight) were isolated and urinary bladder smooth muscle strips of approximately 10 mm in length and approximately 2 mm in width were prepared. The experiment was conducted according to the Magnus method. The preparations with a tension of 1 g were exposed to Krebs-Henseleit solution maintained at 37° C. and gassed with a mixture of 95% oxygen and 5% carbon dioxide. Basal tensions of urinary bladder were measured isometrically with a force-displacement transducer and recorded on a rectigram. The drug was added cumulatively to the Magnus bath every 5 minutes. […] In this experiment, tension of urinary bladder smooth muscle before the addition of the drug was expressed as 100% and tension of maximal relaxation after the addition of 10^−5 molar concentration of forskolin was expressed as 0%.

Row | EC50 (β2-adrenoceptor) | Structure (SMILES) | EC50 (β1-adrenoceptor) | other results
1 | 1600 nM | C[C@H](NCCc1ccc(N(C)CC(=O)O)cc1)[C@H](O)c1ccc(O)cc1 [Compound 21, N-[4-[2-[[(1S, 2R)-2-Hydroxy-2-(4-hydroxyphenyl)-1-methylethyl]-amino]ethyl]phenyl]-N-methylaminoacetic acid] | 34000 nM | 
2 |  | C[C@H](NCCc1cc(Br)c(NCC(=O)O)c(Br)c1)[C@H](O)c1ccc(O)cc1 [Compound 29, N-[2,6-Dibromo-4-[2-[[(1S, 2R)-2-hydroxy-2-(4-hydroxyphenyl)-1-methylethyl]amino]ethyl]phenyl]aminoacetic acid] | > 100000 nM | 
3 | 650 nM | CCOC(=O)CNc1c(Cl)cc(CCN[C@@H](C)[C@H](O)c2ccc(O)cc2)cc1Cl [Compound 2, Ethyl N-[2,6-dichloro-4-[2-[[(1S, 2R)-2-hydroxy-2-(4-hydroxy-phenyl)-1-methylethyl]amino]ethyl]phenyl]aminoacetate hydrochloride] | 50 nM | 
4 | 3300 nM | C[C@H](NCCc1ccc(NCC(=O)O)c(Cl)c1)[C@H](O)c1ccc(O)cc1 [Compound 20, N-[2-Chloro-4-[2-[[(1S, 2R)-2-hydroxy-2-(4-hydroxyphenyl)-1-methylethyl]amino]ethyl]phenyl]aminoacetic acid] | 23000 nM | 
5 |  | C[C@H](Cc1ccc(OCC(=O)O)cc1)NC[C@H](O)c1cccc(Cl)c1 [BRL-37344, reference compound] |  | EC50 (β1-adrenoceptor; read-out: EC50 (molar concentration producing 50% increase of heart rate per minute), isolated male SD rat atria, 100% = increase after 10^−8 M isoproterenol): 270 nM; EC50 (β2-adrenoceptor; read-out: EC50 (molar concentration producing 50% inhibition of uterine contraction)): 9 nM; EC50 (β3-adrenoceptor): 1.6 nM
6 |  | C[C@H](NCCc1cc(Cl)c(NCC(=O)N(C)C)c(Cl)c1)[C@H](O)c1ccc(O)cc1 [Compound 16, 2-[[2,6-Dichloro-4-[2-[[(1S, 2R)-2-hydroxy-2-(4-hydroxyphenyl)-1-methylethyl]amino]ethyl]phenyl]amino]-N, N-dimethylacetamide hydrochloride] | > 100000 nM | 
7 | 1700 nM | C[C@H](NCCc1cc(Cl)c(NCC(=O)N2CCOCC2)c(Cl)c1)[C@H](O)c1ccc(O)cc1 [Compound 32, 4-[2-[[2,6-Dichloro-4-[2-[[(1S, 2R)-2-hydroxy-2-(4-hydroxy-phenyl)-1-methylethyl]amino]ethyl]phenyl]amino]acetyl]morpholine] | > 100000 nM | 
8 | 650 nM | C[C@H](NCCc1ccc(NCC(=O)O)cc1)[C@H](O)c1ccc(O)cc1 [Compound 18, N-[4-[2-[[(1S, 2R)-2-hydroxy-2-(4-hydroxyphenyl)-1-methylethyl]-amino]ethyl]phenyl]aminoacetic acid] | 83 nM | 

Row | Structure (SMILES) | EC50 (β2-adrenoceptor) | EC50 (β1-adrenoceptor) | other results
9 | C[C@H](NCCc1cc(Cl)c(NCC(=O)O)c(Cl)c1)[C@H](O)c1ccc(O)cc1 [Compound 17, N-[2,6-Dichloro-4-[2-[[(1S, 2R)-2-hydroxy-2-(4-hydroxyphenyl)-1-methylethyl]amino]ethyl]phenyl]aminoacetic acid] | 14000 nM | > 100000 nM | Death of animals (acute toxicity) (male ICR rats): No death of animals was observed
